Experimental data: patent US6335350B1, “Acetamide and substituted acetamide-containing thiourea inhibitors of herpes viruses” (American Home Products Corporation, priority 1998, dated 2002)
Converted amounts (≈) assume the structure as drawn.

Assays:
[1] = test system: HCMV wild-type; test: HCMV yield assay; assay type: cell-based, human cytomegalovirus; settings: Human betaherpesvirus 5, Fibroblast, human foreskin fibroblasts; read-out: IC50 Ug/ml HCMV
Outline: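 Value is the compound amount cutting virus yield titer by 50% (IC50) or 90% (IC90). Human foreskin fibroblasts infected with wild-type HCMV (MOI typically 0.2) under varying compound; progeny harvested day 3, titered compound-free on fibroblasts, plaques scored at 2 weeks.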

[2] = test system: VZV strain Ellen; test: VZV Antiviral (ELISA) Assay; assay type: cell-based, varicella-zoster virus; settings: Human alphaherpesvirus 3, Fibroblast, human foreskin fibroblast cells; for IC50: read-out: IC50 Ug/ml VZV; for inhibition at 10 µg/mL: read-out: % inhibition 10 ug/ml VZV, 10 ug/ml
Outline: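 Low-MOI (<0.1) Ellen infection of HFF overnight; cell mix plated 3.5×10^4/well with compound, DMEM + 2% FBS, 3 d, 37° C, 5% CO2. Fix, anti-gpII mAb ELISA, MUG substrate, fluorescence. IC50 vs compound-free signal.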

[3] = test system: HSV-1; test: HSV Antiviral (ELISA) Assay; assay type: cell-based, herpes simplex virus type 1; settings: Vero cells, HSV-1; for IC50: Human alphaherpesvirus 1, Vero, read-out: IC50 Ug/ml HSV
Outline: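 Replication measured as glycoprotein D signal in fixed cells: anti-gD antibody plus β-galactosidase-linked secondary, fluorogenic substrate read at 365/450 nm. Vero cells (2% FBS DMEM) received compound 30 min pre-infection, HSV-1 MOI 0.006, ~24 h incubation; IC50 relative to no-compound fluorescence.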

| SMILES | IC50 [3] [µg/mL] | IC50 Ug/ml HSV [3] [Ug/ml] | IC50 [1] [µg/mL] | IC50 [2] [µg/mL] | inhibition at 10 µg/mL [2] [%] |
| --- | --- | --- | --- | --- | --- |
| CC(=O)Nc1ccc(NC(=S)Nc2ccc(N(C)C3CCCC3)c(Cl)c2)cc1 [Example 844, N-(4-{3-[3-Chloro-4-(cyclopentyl-methyl-amino)-phenyl]-thioureido}-phenyl)-acetamide] | 15 (≈ 36 µM) | – | 0.8 (≈ 1.92 µM) | > 10 | 32 |
| CC(=O)Nc1ccc(NC(=S)Nc2ccc(N(C)C3CCN(C)C3)c(Cl)c2)cc1 (centres unmarked) [Example 845, N-[4-(3-{3-Chloro-4-[methyl-(1-methyl-pyrrolidin-3-yl)-amino]-phenyl}-thioureido)-phenyl]-acetamide] | 20 (≈ 46.3 µM) | – | 1 (≈ 2.31 µM) | > 10 | 25 |
| COc1c(NC(=S)Nc2ccc(NC(C)=O)cc2)cc(Cl)c(C)c1Cl [Example 876, N-{4-[3-(3,5-Dichloro-2-methoxy-4-methyl-phenyl)-thioureido]-phenyl}-acetamide] | – | 10 | 1 (≈ 2.51 µM) | > 10 | 58 |
| COc1c(C)cc(NC(=S)Nc2ccc(NC(C)=O)cc2)cc1Cl [Example 877, N-{4-[3-(3-Chloro-4-methoxy-5-methyl-phenyl)-thioureido]-phenyl}-acetamide] | 30 (≈ 82.4 µM) | – | 2 (≈ 5.5 µM) | > 10 | 15 |
| CC(=O)Nc1ccc(NC(=S)Nc2ccccc2[N+](=O)[O-])cc1 [Example 878, N-{4-[3-(2-Nitro-phenyl)-thioureido]-phenyl}-acetamide] | 50 (≈ 151 µM) | – | 40 (≈ 121 µM) | > 10 | 23 |
| CC(=O)Nc1ccc(NC(=S)Nc2ccc([N+](=O)[O-])cc2)cc1 [Example 879, N-{4-[3-(4-Nitro-phenyl)-thioureido]-phenyl}-acetamide] | > 50 | – | > 10 | > 10 | 16 |
| COc1ccc(Cl)c(NC(=S)Nc2ccc(NC(C)=O)cc2)c1 [Example 881, N-{4-[3-(2-Chloro-5-methoxy-phenyl)-thioureido]-phenyl}-acetamide] | 40 (≈ 114 µM) | – | > 50 | > 10 | 12 |
| CC(=O)Nc1ccc(NC(=S)Nc2cc(Cl)c(OCC(N)=O)c(Cl)c2)cc1 [Example 882, 2-{4-[3-(4-Acetylamino-phenyl)-thioureido]-2,6-dichloro-phenoxy}-acetamide] | > 50 | – | > 50 | > 10 | 15 |
| COC(=O)COc1c(Cl)cc(NC(=S)Nc2ccc(NC(C)=O)cc2)cc1Cl [Example 883, {4-[3-(4-Acetylamino-phenyl)-thioureido]-2,6-dichloro-phenoxy}-acetic acid methyl ester] | 50 (≈ 113 µM) | – | > 10 | > 10 | 17 |
| CCOC(=O)COc1c(Cl)cc(NC(=S)Nc2ccc(NC(C)=O)cc2)cc1Cl [Example 884, {4-[3-(4-Acetylamino-phenyl)-thioureido]-2,6-dichloro-phenoxy}-acetic acid ethyl ester] | > 50 | – | > 10 | > 10 | 21 |
| CC(=O)Nc1ccc(NC(=S)Nc2cc(Cl)c(Oc3ccccc3)c(Cl)c2)cc1 [Example 885, N-{4-[3-(3,5-Dichloro-4-phenoxy-phenyl)-thioureido]-phenyl}-acetamide] | 15 (≈ 33.6 µM) | – | > 10 | > 10 | 45 |
| CC(=O)Nc1ccc(NC(=S)Nc2cc(Cl)c(OCC#N)c(Cl)c2)cc1 [Example 886, N-(4-{3-[3,5-Dichloro-4-(2-nitrilo-ethoxy)-phenyl]-thioureido}-phenyl)-acetamide] | 25 (≈ 61.1 µM) | – | 10 (≈ 24.4 µM) | > 15 | 50 |
| CC(=O)Nc1ccc(NC(=S)Nc2cc(Cl)c(OCC(=O)OC(C)(C)C)c(Cl)c2)cc1 [Example 887, {4-[3-(4-Acetylamino-phenyl)-thioureido]-2,6-dichloro-phenoxy}-acetic acid tert-butyl ester] | 45 (≈ 92.9 µM) | – | > 10 | > 10 | 38 |
| CC(=O)Nc1ccc(NC(=S)Nc2cc(Cl)c(C)c(Cl)c2)cc1 [Example 892, N-{4-[3-(3,5-Dichloro-4-methyl-phenyl)-thioureido]-phenyl}-acetamide] | 10 (≈ 27.2 µM) | – | 1 (≈ 2.72 µM) | > 10 | 25 |
| COc1c(I)cc(NC(=S)Nc2ccc(NC(C)=O)cc2)c(OC)c1I [Example 893, N-{4-[3-(3,5-Diiodo-2,4-dimethoxy-phenyl)-thioureido]-phenyl}-acetamide] | 20 (≈ 33.5 µM) | – | 7 (≈ 11.7 µM) | 2.5 (≈ 4.19 µM) | 76 |
| COc1c(Br)cc(NC(=S)Nc2ccc(NC(C)=O)cc2)c(OC)c1Br [Example 894, N-{4-[3-(3,5-Dibromo-2,4-dimethoxy-phenyl)-thioureido]-phenyl}-acetamide] | 12 (≈ 23.8 µM) | – | 7 (≈ 13.9 µM) | > 10 | 56 |
| COc1ccc(NC(=S)Nc2ccc(NC(C)=O)cc2)c(OC)n1 [Example 896, N-{4-[3-(2,6-Dimethoxy-pyridin-3-yl)-thioureido]-phenyl}-acetamide] | 12 (≈ 34.6 µM) | – | > 50 | > 10 | 17 |
| CC(=O)Nc1ccc(NC(=S)Nc2cc(Cl)c(OCCOC(C)=O)c(Cl)c2)cc1 [Example 897, Acetic acid 2-{4-[3-(4-acetylamino-phenyl)-thioureido]-2,6-dichloro-phenoxy}-ethyl ester] | 40 (≈ 87.7 µM) | – | > 10 | > 10 | 33 |
| CC(=O)Nc1ccc(NC(=S)Nc2ccc(C#N)c(Cl)c2)cc1 [Example 899, N-{4-[3-(3-Chloro-4-cyano-phenyl)-thioureido]-phenyl}-acetamide] | 10 (≈ 29 µM) | – | > 10 | > 10 | 7 |
| CC(=O)Nc1ccc(NC(=S)Nc2cc(Cl)c(-n3cccc3)cc2Oc2ccc(Cl)cc2)cc1 [Example 900, N-(4-{3-[5-Chloro-2-(4-chloro-phenoxy)-4-pyrrol-1-yl-phenyl]-thioureido}-phenyl)-acetamide] | > 10 | – | 2 (≈ 3.91 µM) | 2.5 (≈ 4.89 µM) | 124 |

Now from value to compound, other results behind:

| IC50 [3] [µg/mL] | IC50 Ug/ml HSV [3] [Ug/ml] | SMILES | IC50 [1] [µg/mL] | IC50 [2] [µg/mL] | inhibition at 10 µg/mL [2] [%] |
| --- | --- | --- | --- | --- | --- |
| > 10 | – | CC(=O)Nc1ccc(NC(=S)Nc2ccc(C(C)O)c(Cl)c2)cc1 (centres unmarked) [Example 862, N-(4-{3-[3-Chloro-4-(1-hydroxy-ethyl)-phenyl]-thioureido}-phenyl)-acetamide] | 2 (≈ 5.5 µM) | > 10 | 10 |
| > 10 | – | CC(=O)Nc1ccc(NC(=S)Nc2ccc(CCO)c(Cl)c2)cc1 [Example 864, N-(4-{3-[3-Chloro-4-(2-hydroxy-ethyl)-phenyl]-thioureido}-phenyl)-acetamide] | > 10 | > 10 | 21 |
| 2 (≈ 5.99 µM) | – | CC(=O)Nc1ccc(NC(=S)Nc2ccc(C)c(Cl)c2)cc1 [Example 889, N-{4-[3-(3-Chloro-4-methyl-phenyl)-thioureido]-phenyl}-acetamide] | 1.2 (≈ 3.59 µM) | > 10 | 1 |
| 20 (≈ 59.9 µM) | – | CC(=O)Nc1ccc(NC(=S)Nc2cc(Cl)ccc2C)cc1 [Example 890, N-{4-[3-(5-Chloro-2-methyl-phenyl)-thioureido]-phenyl}-acetamide] | 35 (≈ 105 µM) | > 10 | 20 |
| > 50 | – | CC(=O)Nc1ccc(NC(=S)Nc2ccc(C(=O)O)c(Cl)c2)cc1 [Example 898, 4-[3-(4-Acetylamino-phenyl)-thioureido]-2-chloro-benzoic acid] | > 50 | > 10 | 0 |
| 1.5 (≈ 4.23 µM) | – | CC(=O)Nc1ccc(NC(=S)Nc2ccc(Cl)c(Cl)c2)cc1 [Example 901, N-{4-[3-(3,4-Dichloro-phenyl)-thioureido]-phenyl}-acetamide] | 2.5 (≈ 7.06 µM) | > 10 | 1 |
| 4 (≈ 11.8 µM) | – | CC(=O)Nc1ccc(NC(=S)Nc2ccc(F)c(Cl)c2)cc1 [Example 902, N-{4-[3-(3-Chloro-4-fluoro-phenyl)-thioureido]-phenyl}-acetamide] | 12 (≈ 35.5 µM) | > 10 | 1 |
| 10 (≈ 22.4 µM) | – | CC(=O)Nc1ccc(NC(=S)Nc2ccc(I)c(Cl)c2)cc1 [Example 903, N-{4-[3-(3-Chloro-4-iodo-phenyl)-thioureido]-phenyl}-acetamide] | 0.3 (≈ 0.673 µM) | > 10 | 26 |
| 4 (≈ 10 µM) | – | CC(=O)Nc1ccc(NC(=S)Nc2ccc(Br)c(Cl)c2)cc1 [Example 904, N-{4-[3-(4-Bromo-3-chloro-phenyl)-thioureido]-phenyl}-acetamide] | 1 (≈ 2.51 µM) | > 10 | 26 |
